Laboratory results taken from patent publication US7244744B2, “Piperidines” (Icagen, Inc., priority 2001, dated 2007).

Target: T1, PN3 (Homo sapiens, UniProt Q9Y5Y9)
T1 construct: expressed in transfected cells
Experiment: 14C Guanidinium Ion Influx Binding Assay (flux assay)
Format: cell-based
Conditions: activity towards PN3, PN3 stably expressed in a host cell line, deltamethrine 10 μM
Procedure: 1.1 ^14C Guanidinium Ion Influx Binding Assay
PN3 stably expressed in a host cell line were maintained in DMEM with 5% fetal bovine serum and 300 μg/ml G-418. The cells were subcultured and grown to confluence in 96-well plates 24-48 h before each experiment. After the growth medium was removed, the cells were washed with warm buffer (25 mM Hepes-Tris, 135 mM choline chloride, 5.4 mM potassium chloride, 0.98 mM magnesium sulfate, 5.5 mM glucose, and 1 mg/ml BSA, pH 7.4) and incubated in buffer on a 36° C. slide wanner for approximately 10 minutes. Various concentrations of the test compounds or standard sodium channel blockers (10 μM) and then deltamethrine (10 μM) were added to each well. After the cells were exposed to deltamethrine for 5 minutes, 5 μM of ^14C-guanidinium was added, incubated with the radioligand (30-60 min), washed with ice-cold buffer, and dissolved in 0.1N sodium hydroxide. The radioactivity and the protein concentration of each cell lysate were determined by liquid scintillation counting and the protein assay using Pierce BCA reagent.

T1 sequence (Q9Y5Y9 whole entry, species assumed): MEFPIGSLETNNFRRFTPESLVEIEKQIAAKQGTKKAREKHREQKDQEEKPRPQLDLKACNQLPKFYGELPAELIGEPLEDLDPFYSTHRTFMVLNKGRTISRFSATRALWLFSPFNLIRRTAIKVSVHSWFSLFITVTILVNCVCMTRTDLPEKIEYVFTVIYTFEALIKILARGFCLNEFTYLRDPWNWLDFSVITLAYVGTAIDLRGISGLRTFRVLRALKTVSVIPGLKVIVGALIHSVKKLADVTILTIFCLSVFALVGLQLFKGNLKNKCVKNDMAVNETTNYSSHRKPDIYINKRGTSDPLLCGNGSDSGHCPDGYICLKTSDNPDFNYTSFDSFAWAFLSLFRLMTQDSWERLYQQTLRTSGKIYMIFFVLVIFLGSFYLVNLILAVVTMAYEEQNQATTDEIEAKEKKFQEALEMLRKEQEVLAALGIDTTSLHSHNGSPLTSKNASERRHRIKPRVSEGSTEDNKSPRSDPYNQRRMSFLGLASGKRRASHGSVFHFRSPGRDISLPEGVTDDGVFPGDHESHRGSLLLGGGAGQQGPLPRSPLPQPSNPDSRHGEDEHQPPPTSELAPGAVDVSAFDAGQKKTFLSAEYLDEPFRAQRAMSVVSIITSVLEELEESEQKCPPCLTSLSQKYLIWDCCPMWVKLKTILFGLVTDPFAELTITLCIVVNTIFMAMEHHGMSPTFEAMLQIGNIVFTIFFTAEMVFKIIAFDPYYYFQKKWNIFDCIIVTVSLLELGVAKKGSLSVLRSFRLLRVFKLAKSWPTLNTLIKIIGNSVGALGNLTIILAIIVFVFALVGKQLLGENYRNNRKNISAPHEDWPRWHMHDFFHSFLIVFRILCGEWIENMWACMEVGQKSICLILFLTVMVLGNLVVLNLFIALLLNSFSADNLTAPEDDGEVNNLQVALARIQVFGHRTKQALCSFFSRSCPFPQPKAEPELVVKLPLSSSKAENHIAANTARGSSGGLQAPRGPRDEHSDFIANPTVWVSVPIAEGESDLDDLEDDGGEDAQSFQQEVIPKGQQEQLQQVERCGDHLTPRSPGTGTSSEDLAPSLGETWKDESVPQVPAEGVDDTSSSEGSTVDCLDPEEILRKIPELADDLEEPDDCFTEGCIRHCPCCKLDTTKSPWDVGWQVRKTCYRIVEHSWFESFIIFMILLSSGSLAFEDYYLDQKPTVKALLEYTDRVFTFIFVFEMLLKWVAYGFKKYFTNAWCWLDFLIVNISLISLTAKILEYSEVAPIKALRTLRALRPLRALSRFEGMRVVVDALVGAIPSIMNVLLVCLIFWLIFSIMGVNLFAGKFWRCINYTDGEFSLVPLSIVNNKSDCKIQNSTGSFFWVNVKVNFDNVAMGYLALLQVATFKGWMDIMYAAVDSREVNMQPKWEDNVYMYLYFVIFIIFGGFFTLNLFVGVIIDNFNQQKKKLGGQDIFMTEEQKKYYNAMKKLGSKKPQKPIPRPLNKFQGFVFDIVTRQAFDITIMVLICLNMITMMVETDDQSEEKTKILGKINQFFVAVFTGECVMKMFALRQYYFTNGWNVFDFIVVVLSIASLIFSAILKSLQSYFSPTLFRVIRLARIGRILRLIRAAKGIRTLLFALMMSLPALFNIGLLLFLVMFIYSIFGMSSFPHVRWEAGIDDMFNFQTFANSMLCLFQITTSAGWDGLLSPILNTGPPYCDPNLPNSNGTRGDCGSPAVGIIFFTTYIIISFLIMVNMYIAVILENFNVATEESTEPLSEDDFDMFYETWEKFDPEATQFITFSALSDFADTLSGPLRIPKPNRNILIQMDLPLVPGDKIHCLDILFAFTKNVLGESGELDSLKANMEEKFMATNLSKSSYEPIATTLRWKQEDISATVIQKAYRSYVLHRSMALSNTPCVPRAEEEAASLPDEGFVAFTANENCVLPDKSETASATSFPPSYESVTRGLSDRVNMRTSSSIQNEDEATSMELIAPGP

| IC50 [µM] | Structure (SMILES) |
| --- | --- |
| 0.1 to 4 | CCCCc1ccc(C(=O)N2CCC(n3c(=O)[nH]c4ccccc43)CC2)cc1 [Compound 34, 1-[1-(4-Butyl-benzoyl)-piperidin-4-yl]-1,3-dihydro-benzoimidazol-2-one] |
| 0.1 to 4 | CCCCc1ccc(C(=O)N2CCC(n3c(=O)n(C)c4ccccc43)CC2)cc1 [Compound 150, 1-[1-(4-Butyl-benzoyl)-piperidin-4-yl]-3-methyl-1,3-dihydro-benzoimidazol-2-one] |
| 0.1 to 4 | CCCCc1ccc(C(=O)N2CCC(n3c(=O)[nH]c4cc(F)ccc43)CC2)cc1 [Compound 160, 1-[1-(4-Butyl-benzoyl)-piperidin-4-yl]-5-fluoro-1,3-dihydro-benzoimidazol-2-one] |
| 0.1 to 4 | CCCCc1ccc(C(=O)N2CC=C(n3c(=O)[nH]c4ccccc43)CC2)cc1 [Compound 181, 1-[1-(4-Butyl-benzoyl)-1,2,3,6-tetrahydro-pyridin-4-yl]-1,3-dihydro-benzoimidazol-2-one] |
| 4.1 to 10 | CCCCc1ccc(C(=O)N2CCC(n3c(NCc4ccccn4)nc4ccccc43)CC2)cc1 [Compound 185, (4-Butyl-phenyl)-(4-{2-[(pyridin-2-ylmethyl)-amino]-benzoimidazol-1-yl}-piperidin-1-yl)-methanone] |
| 0.1 to 4 | CCCCCCNc1nc2ccccc2n1C1CCN(C(=O)c2ccc(CCCC)cc2)CC1 [Compound 188, (4-Butyl-phenyl)-[4-(2-hexylamino-benzoimidazol-1-yl)-piperidin-1-yl]-methanone] |
| 0.1 to 4 | CCCCc1ccc(C(=O)N2CCC(n3c(=O)n(Cc4ccncc4)c4ccccc43)CC2)cc1 [Compound 198, 1-[1-(4-Butyl-benzoyl)-piperidin-4-yl]-3-pyridin-4-ylmethyl-1,3-dihydro-benzoimidazol-2-one] |
| 0.1 to 4 | CCCCc1ccc(C(=O)N2CCC(n3c(=O)[nH]c4cccnc43)CC2)cc1 [Compound 200, 3-[1-(4-Butyl-benzoyl)-piperidin-4-yl]-1,3-dihydro-imidazo[4,5-b]pyridin-2-one] |
| 4.1 to 10 | CCCCc1ccc(C(=O)N2CCC(n3c(C)nc4ccccc43)CC2)cc1 [Compound 203, (4-Butyl-phenyl)-[4-(2-methyl-benzoimidazol-1-yl)-piperidin-1-yl]-methanone] |
| 0.1 to 4 | CCCCc1ccc(C(=O)N2CC=C(n3c(=O)n(C)c4ccccc43)CC2)cc1 [Compound 206, 1-[1-(4-Butyl-benzoyl)-1,2,3,6-tetrahydro-pyridin-4-yl]-3-methyl-1,3-dihydro-benzoimidazol-2-one] |
| 0.1 to 4 | CCCCc1ccc(C(=O)N2CC=C(n3c(=O)n(Cc4ccccc4)c4ccccc43)CC2)cc1 [Compound 208, 1-Benzyl-3-[1-(4-butyl-benzoyl)-1,2,3,6-tetrahydro-pyridin-4-yl]-1,3-dihydro-benzoimidazol-2-one] |
| 0.1 to 4 | CCCCc1ccc(C(=O)N2CCC(n3c(NCc4ccccc4)nc4ccccc43)CC2)cc1 [Compound 300, [4-(2-Benzylamino-benzoimidazol-1-yl)-piperidin-1-yl]-(4-butyl-phenyl)-methanone] |
| 4.1 to 10 | O=c1[nH]c2ccccc2n1C1CCN(S(=O)(=O)c2ccc3ccccc3c2)CC1 [Compound 304, 1-[1-(Naphthalene-2-sulfonyl)-piperidin-4-yl]-1,3-dihydro-benzoimidazol-2-one] |
